System: MAGI-CCR5 HeLa cells, HIV-1 IIIB, beta-gal luminescence, 48 h
Assay: anti-HIV-1 IIIB activity in MAGI-CCR5 reporter cells – cell-based, MAGI-CCR5 HeLa, beta-gal luminescence, 2% serum, set 2, dose response (AID 504570)

Row | IC50 | SMILES
1 | 11.9 µM | Cc1c2c(=O)n(-c3nc4ccccc4s3)nc-2cc(O)n1Cc1cccs1
2 | 5.34 µM | Cc1c2c(=O)n(-c3nc4ccccc4s3)nc-2cc(O)n1CCC(C)C
3 | 3.75 µM | Cc1c2c(=O)n(-c3nc4ccccc4s3)nc-2cc(O)n1Cc1ccc(F)cc1
4 | 7.53 µM | Cc1c2c(=O)n(-c3nc4ccccc4s3)nc-2cc(O)n1C1CC1
5 | 26 µM | Cc1c2c(=O)n(-c3nc4ccccc4s3)nc-2cc(O)n1CCc1cccs1
6 | 14.7 µM | Cc1c2c(=O)n(-c3nc4ccccc4s3)nc-2cc(O)n1Cc1ccncc1
7 | 7.09 µM | Cc1c2c(=O)n(-c3nc4ccccc4s3)nc-2cc(O)n1Cc1cccnc1
8 | 14.5 µM | Cc1c2c(=O)n(-c3nc4ccccc4s3)nc-2cc(O)n1Cc1ccccc1
9 | 33.6 µM | COc1ccc(Cn2c(O)cc3nn(-c4nc5ccccc5s4)c(=O)c-3c2C)cc1
10 | 3.07 µM | Cc1c2c(=O)n(-c3nc4ccccc4s3)nc-2cc(O)n1Cc1ccccc1Cl
11 | 11.8 µM | COc1ccc(CCn2c(O)cc3nn(-c4nc5ccccc5s4)c(=O)c-3c2C)cc1
12 | 26.5 µM | COc1ccccc1Cn1c(O)cc2nn(-c3nc4ccccc4s3)c(=O)c-2c1C
13 | 25.6 µM | Cc1c2c(=O)n(-c3nc4ccccc4s3)nc-2cc(O)n1CCc1ccc(O)cc1
